Data as given in patent US20240368168A1, “SARM1 ENZYME ACTIVITY INHIBITOR AND APPLICATION THEREOF” (ARTIVILA BIOPHARMA, priority 2021, published 2024).
pEC50, pIC50: −log10 of the molar value.

Tests used:
dN-SARM1 protein [1] = target: T1, dN-SARM1 protein (Homo sapiens, UniProt Q6SZW1); experiment: In vitro biochemical assay for inhibiting SARM1 enzymatic activity (% inhibition rate), PC6 fluorescence method; conditions: 20 μM compound; 50 μM NAD, 50 μM PC6, 50 μM NMN activator
T1 construct: the N-terminal mitochondrial localization signal peptide of SARM1 was removed
T1 sequence (Q6SZW1 28-724): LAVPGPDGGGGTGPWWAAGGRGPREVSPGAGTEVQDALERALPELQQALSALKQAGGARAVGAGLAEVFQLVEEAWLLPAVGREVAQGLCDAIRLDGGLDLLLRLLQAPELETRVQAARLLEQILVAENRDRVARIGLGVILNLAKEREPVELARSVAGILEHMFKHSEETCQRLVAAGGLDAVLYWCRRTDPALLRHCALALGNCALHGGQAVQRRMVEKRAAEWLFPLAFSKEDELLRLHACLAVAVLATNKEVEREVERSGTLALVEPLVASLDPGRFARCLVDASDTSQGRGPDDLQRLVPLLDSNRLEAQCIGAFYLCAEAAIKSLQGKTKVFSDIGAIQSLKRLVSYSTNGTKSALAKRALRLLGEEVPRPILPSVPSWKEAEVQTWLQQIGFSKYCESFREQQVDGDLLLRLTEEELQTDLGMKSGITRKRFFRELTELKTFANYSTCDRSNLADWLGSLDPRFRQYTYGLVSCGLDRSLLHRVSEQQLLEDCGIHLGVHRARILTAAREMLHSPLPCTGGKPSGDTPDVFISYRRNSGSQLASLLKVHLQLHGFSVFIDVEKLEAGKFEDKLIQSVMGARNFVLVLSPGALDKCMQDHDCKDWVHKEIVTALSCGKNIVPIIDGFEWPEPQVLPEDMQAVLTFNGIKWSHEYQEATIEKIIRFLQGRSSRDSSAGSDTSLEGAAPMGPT
Experimental: The compounds were subjected to PC6 fluorescence method measurement [Chinese Patent 202010528147.3] using the dN-SARM1 protein obtained through “(4) Protein extraction” in “Expression and purification of SARM1 protein” in the above biological activity example 1.
First, 0.05 μg/ml dN-SARM1 and 20 μM compound were incubated in 50 mM Tris-HCl (pH 7.5) solution for 10 min, and then added with 50 μM NAD and 50 μM PC6 as substrate and 50 μM NMN as activator for 30 minutes of reaction at room temperature. The concentration of each component was the final concentration in the reaction system.
During the reaction, PC6 fluorescence spectrum dynamics were detected by a microplate reader, wherein the excitation wavelength and emission wavelength for detection were 390 nm and 520 nm, respectively. Finally, the reaction rate was used to express the activity of the protein. The higher the reaction rate, the stronger the activity of the protein and the lower the inhibitory efficiency of the compound.

dN-SARM1 protein [2] = target: T1, dN-SARM1 protein; experiment: In vitro biochemical assay for inhibiting SARM1 enzymatic activity (IC50), PC6 fluorescence method; conditions: 50 μM NAD, 50 μM PC6, 50 μM NMN activator
Procedure, shortened: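 dN-SARM1 (0.05 μg/ml, 50 mM Tris-HCl pH 7.5) preincubated 10 min at room temperature with compound in serial dilution from 200 μM. Reaction started with final 50 μM NAD, 50 μM PC6 substrate and 50 μM NMN activator, 30 min at room temperature. PC6 fluorescence (ex 390/em 520 nm) rate gives activity; IC50 derived.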

[3] = target: T2, SARM1 protein in iSARM1 (HEK293) cells (Homo sapiens, UniProt Q6SZW1); experiment: Inhibitory activity in inducible SARM1 overexpressing cell line, intracellular cADPR level; format: cell-based; conditions: activator CZ-48 100 μM, cADPR content
T2 construct: The full-length SARM1 was synthesized into the pUC57 plasmid by WZ Biosciences Inc., and PCR was performed using pUC57-SARM1 as a DNA template
T2 sequence (Q6SZW1 28-724): T1 sequence (Q6SZW1 28-724)
Procedure, shortened: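 Inducible SARM1-overexpressing HEK293 cells preincubated 1.5 h with inhibitor (50 μM final), then activated with 100 μM CZ-48 for 16 h. Intracellular cADPR extracted with perchloric acid, NAD+ removed by NADase, and quantified by cyclase-coupled resazurin cycling assay (Ex/Em 544/599, 30 min kinetics) against cADPR standards; inhibition rate and IC50 calculated.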

| Compound | inhibition at 20 µM (dN-SARM1 protein [1]) | pIC50 (dN-SARM1 protein [2]) | pEC50 [3] |
| --- | --- | --- | --- |
| CN(C(=O)OC(C)(C)C)c1ccc2ncc(-c3cccc(NC(=O)COCCOCCOCC(=O)Nc4cccc5c4CN(C4CCC(=O)NC4=O)C5=O)c3)n2c1 (stereo not drawn) [Compound 115, tert-butyl (3-(3-(2-(2-(2-(2-((2-(2,6-dioxopiperidin-3-yl))-1-oxoisoindolin-4-yl)amino)-2-oxoethoxy)ethoxy)ethoxy)acetamido)phenyl)imidazo[1,2-a]pyridin-6-yl)(methyl) carbamate] | > 90% | > 6.00 | 5.00 to 6.00 |
| CNc1ccc2ncc(-c3ccccc3)n2n1 [Compound 20] | 50 to 89% | > 6.00 | 5.00 to 6.00 |
| COCCOCC(=O)Nc1cccc(-c2cnc3ccc(NC(=O)C(C)(C)C)cn23)c1 [Compound 130] | > 90% | > 6.00 | 5.00 to 6.00 |
| CN(C(=O)OC(C)(C)C)c1ccc2ncc(-c3cccc(NC(=O)C4COC4)c3)n2c1 [Compound 150] | > 90% | 5.00 to 6.00 |  |
| Cc1ccc2ncc(-c3cccc(NC(=O)C4CCOCC4)c3)n2c1 [Compound 54] | > 90% | > 6.00 |  |
| CC(C)(C)OC(=O)Nc1ccc2ncc(-c3cccc(NC(=O)COCCOCCOCC(=O)Nc4cccc(-c5cnc6ccc(NC(=O)OC(C)(C)C)cn56)c4)c3)n2c1 [Compound 123] | > 90% | > 6.00 | > 6.00 |
| CN(C(=O)OC(C)(C)C)c1ccc2ncc(-c3cccc(NC(=O)C4CCOC4)c3)n2c1 (stereo not drawn) [Compound 149] | > 90% | 5.00 to 6.00 |  |
| CNc1ccc2ncc(C(=O)Nc3ccccc3)n2c1 [Compound 105, 6-(methylamino)-N-phenylimidazo[1,2-a]pyridin-3-carboxamide] | > 90% | 5.00 to 6.00 | 5.00 to 6.00 |
| COCCOCC(=O)Nc1cccc(-c2cnc3ccc(N4CCOCC4)cn23)c1 [Compound 56] | > 90% | > 6.00 |  |
| COCCOCC(=O)Nc1cccc(-c2cnc3ccc(C)cn23)c1 [Compound 53] | > 90% | 5.00 to 6.00 |  |
| CNc1ccc2ncc(-c3cccc(OCCOCCOC)c3)n2c1 [Compound 153] | > 90% | 5.00 to 6.00 |  |
| COc1ccn2c(-c3ccccc3)cnc2c1 [Compound 26] | > 90% | > 6.00 |  |
| CC(C)(C)OC(=O)Nc1ccc2ncc(I)n2c1 [Compound 44] | 50 to 89% | 5.00 to 6.00 | 5.00 to 6.00 |
| COCCOCC(=O)Nc1ccc(-c2cnc3ccc(N(C)C(=O)OC(C)(C)C)cn23)cc1 [Compound 50] | > 90% | 5.00 to 6.00 | 5.00 to 6.00 |
| COCCOCC(=O)Nc1cccc(-c2cnc3ccc(NC(=O)OC(C)(C)C)cn23)c1 [Compound 58, tert-butyl (3-(3-(2-(2-methoxyethoxy)acetamido)phenyl)imidazo[1,2-a]pyridin-6-yl)carbamate] | 50 to 89% | > 6.00 |  |
| c1ccc(-c2cnc3ccc(N4CCOCC4)cn23)cc1 [Compound 34] | > 90% | 5.00 to 6.00 | 5.00 to 6.00 |
| COCCOCC(=O)Nc1cccc(-c2cnc3ccc(NC(=O)C4CC4)cn23)c1 [Compound 129, N-(3-(3-(2-(2-methoxyethoxy)acetamido)phenyl)imidazo[1,2-a]pyridin-6-yl)cyclopropanecarboxamide] | > 90% | > 6.00 | 5.00 to 6.00 |
| CNc1ccc2ncc(-c3cccc(C(=O)NCCOCCOC)c3)n2c1 [Compound 134] | > 90% | > 6.00 |  |
| CC(C)(C)OC(=O)NCc1ccc2ncc(I)n2c1 [Compound 143] | > 90% | 5.00 to 6.00 |  |
| CCOC(=O)CCC(=O)Nc1cccc(-c2cnc3ccc(N(C)C(=O)OC(C)(C)C)cn23)c1 [Compound 151] | > 90% | 5.00 to 6.00 |  |
| CC(C)(C)OC(=O)Nc1ccc2ncc(-c3cccc(NC(=O)COCCOCC(=O)Nc4cccc(-c5cnc6ccc(NC(=O)OC(C)(C)C)cn56)c4)c3)n2c1 [Compound 122] | > 90% | > 6.00 | > 6.00 |

| Compound | inhibition at 20 µM (dN-SARM1 protein [1]) | pIC50 (dN-SARM1 protein [2]) | pEC50 [3] |
| --- | --- | --- | --- |
| CC(C)(C)OC(=O)Nc1ccc2ncc(-c3cccc(N)c3)n2c1 [Compound 46] | > 90% | 5.00 to 6.00 |  |
| COc1cccn2c(-c3ccccc3)cnc12 [Compound 27] | 50 to 89% | 5.00 to 6.00 |  |
| CN(C(=O)OC(C)(C)C)c1ccc2ncc(-c3cccc(NC(=O)C4CCOCC4)c3)n2c1 [Compound 49] | > 90% | 5.00 to 6.00 | > 6.00 |
| c1ccc(Nc2ccc3ncc(-c4ccccc4)n3c2)cc1 [Compound 75] | > 90% | 5.00 to 6.00 | > 6.00 |
| COCCOCC(=O)Nc1cccc(-c2cnc3ccc(N)cn23)c1 [Compound 128, N-(3-(6-aminoimidazo[1,2-a]pyridin-3-yl)phenyl)-2-(2-methoxyethoxy)acetamide] | > 90% | 5.00 to 6.00 |  |
| CCOC(=O)c1ccc2ncc(-c3ccccc3)n2c1 [Compound 24] | > 90% | 5.00 to 6.00 |  |
| CNc1ccc2ncc(-c3cccc(OCC4CCOCC4)c3)n2c1 [Compound 154] | > 90% | > 6.00 |  |
| CN1CCN(c2ccc3ncc(-c4ccccc4)n3c2)CC1 [Compound 37] | 50 to 89% | 5.00 to 6.00 |  |
| CN(C(=O)OC(C)(C)C)c1ccc2ncc(-c3ccc(N)cc3)n2c1 [Compound 40] | > 90% | 5.00 to 6.00 | 5.00 to 6.00 |
| CNc1ccc2ncc(-c3cccc(NC(=O)COCCOCCOCC(=O)Nc4cccc(-c5cnc6ccc(NC)cn56)c4)c3)n2c1 [Compound 79] | > 90% | > 6.00 | 5.00 to 6.00 |
| c1cn2cc(N3CCOCC3)ccc2n1 [Compound 32] | > 90% | 5.00 to 6.00 | 5.00 to 6.00 |
| Brc1cnc2ccc(N3CCOCC3)cn12 [Compound 33] | > 90% | 5.00 to 6.00 | 5.00 to 6.00 |
| CC(C)(C)OC(=O)NCc1ccc2ncc(-c3cccc(N)c3)n2c1 [Compound 144] | > 90% | > 6.00 |  |
| CNc1ccc2ncc(-c3cccc(NC(=O)COCCOC)c3)n2c1 [Compound 77] | > 90% | 5.00 to 6.00 |  |
| CNc1ccc2ncc(-c3cccc(S(=O)(=O)NC4CCOCC4)c3)n2c1 [Compound 110, 3-(6-(methylamino)imidazo[1,2-a]pyridin-3-yl)-N-(tetrahydro-2H-pyran-4-yl)benzenesulfonamide] | > 90% | > 6.00 |  |
| CNc1ccc2ncc(-c3cccc(NC(=O)COCCOCC(=O)Nc4cccc(-c5cnc6ccc(NC)cn56)c4)c3)n2c1 [Compound 78] | > 90% | > 6.00 | 5.00 to 6.00 |
| COCCOCC(=O)Nc1cccc(-c2cnc3ccc(CNC(=O)C(C)(C)C)cn23)c1 [Compound 146] | > 90% | 5.00 to 6.00 |  |
| CN(C(=O)OC(C)(C)C)c1ccc2ncc(-c3ccnc(N)c3)n2c1 [Compound 41] | > 90% | 5.00 to 6.00 |  |
| COCCOCC(=O)Nc1cccc(-c2cnc3ccc(CNC(=O)OC(C)(C)C)cn23)c1 [Compound 145] | > 90% | > 6.00 |  |
| CN(C)c1ccc2ncc(-c3ccccc3)n2n1 [Compound 94, N,N-dimethyl-3-phenylimidazo[1,2-b]pyridazin-6-amine] | > 90% | > 6.00 |  |
